Results reported in patent US6355799B1, “Substituted benzene compounds, process for their preparation, and herbicidal and defoliant compositions containing them” (ISK Americas Incorporated, priority 1997, dated 2002).

How the values were obtained:
Assay type in all cases: in vivo
[1] = tested on: redroot pigweed (Amaranthus retroflexus, AMARE); test: Pre-emerge test, greenhouse herbicide activity screening; conditions: pre-emerge, phytotoxicity rating 0-100 at 14 days after application
How it was run: (§1)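 Compounds in acetone were track-sprayed at 15-1000 g ai/ha (187 l/ha) on sandy loam pots: pre-emerge one day after seeding, post-emerge at 2-3 leaf stage with 0.25% v/v non-ionic surfactant. Phytotoxicity was rated 14 days later on a 0 (no damage) to 100 (complete death) scale.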

[2] = tested on: upland rice (Oryza sp., var. Tebonnet, RICE); test: Post-emerge test, crop safety; conditions: post-emerge, crop damage rating 0-100 at 14 days after application
How it was run: (§2)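 Each test used a mechanized track sprayer delivering 187 l/ha of acetone solution at 15–1000 g ai/ha. Post-emerge foliage at 2–3 leaves was treated with added 0.25% v/v non-ionic surfactant and bottom-watered only. Injury was assessed on day 14, where 100 means total kill.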

[3] = tested on: field corn (Zea mays L., var. Dekalb 535, CORN); test: Post-emerge test, crop safety; conditions: post-emerge, crop damage rating 0-100 at 14 days after application
How it was run: as §2

[4] = tested on: velvetleaf (Abutilon theophrasti, ABUTH); test: Pre-emerge test, greenhouse herbicide activity screening; conditions: pre-emerge, phytotoxicity rating 0-100 at 14 days after application
How it was run: (§3)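 Plants grown in 10 cm pots of sandy loam mix received acetone-dissolved compounds through a moving flat-fan nozzle. Doses ranged from 15 to 1000 g ai/ha. Pre-emerge pots were seeded one day earlier, post-emerge pots 8–21 days earlier. Fourteen days on, each pot was graded 0–100 for damage.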

[5] = tested on: johnsongrass (Sorghum halepense, SORHA); test: as above; conditions: pre-emerge, phytotoxicity rating 0-100 at 14 days after application
How it was run: as §3

[6] = tested on: lambsquarters (Chenopodium album, CHEAL); test: as above; conditions: pre-emerge, phytotoxicity rating 0-100 at 14 days after application
How it was run: as §3

[7] = tested on: barnyardgrass (Echinochloa crus-galli, ECHCG); test: as above; conditions: pre-emerge, phytotoxicity rating 0-100 at 14 days after application
How it was run: as §3

[8] = tested on: green foxtail (Setaria viridis, SETVI); test: as above; conditions: pre-emerge, phytotoxicity rating 0-100 at 14 days after application
How it was run: as §3

[9] = tested on: large crabgrass (Digitaria sanguinalis, DIGSA); test: as above; conditions: pre-emerge, phytotoxicity rating 0-100 at 14 days after application
How it was run: as §3

[10] = tested on: sicklepod (Cassia obtusifolia, CASOB); test: as above; conditions: pre-emerge, phytotoxicity rating 0-100 at 14 days after application
How it was run: as §3

[11] = tested on: ivyleaf morningglory (Ipomoea hederacea, IPOHE); test: as above; conditions: pre-emerge, phytotoxicity rating 0-100 at 14 days after application
How it was run: as §3

[12] = tested on: velvetleaf (Abutilon theophrasti, ABUTH); test: Post-emerge test, greenhouse herbicide activity screening; conditions: post-emerge, phytotoxicity rating 0-100 at 14 days after application
How it was run: (§4)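 Herbicidal damage is scored 0 (none) to 100 (complete plant death) two weeks after a simulated field spray. Rates span 15–1000 g ai/ha, delivered in acetone at 187 l/ha. For post-emergence treatments, plants have 2–3 leaves and the spray carries 0.25% v/v non-ionic surfactant.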

[13] = tested on: johnsongrass (Sorghum halepense, SORHA); test: as above; conditions: post-emerge, phytotoxicity rating 0-100 at 14 days after application
How it was run: as §4

[14] = tested on: redroot pigweed (Amaranthus retroflexus, AMARE); test: as above; conditions: post-emerge, phytotoxicity rating 0-100 at 14 days after application
How it was run: as §4

[15] = tested on: lambsquarters (Chenopodium album, CHEAL); test: as above; conditions: post-emerge, phytotoxicity rating 0-100 at 14 days after application
How it was run: as §4

[16] = tested on: common ragweed (Ambrosia artemisizfolia L., AMBEL); test: as above; conditions: post-emerge, phytotoxicity rating 0-100 at 14 days after application
How it was run: as §4

[17] = tested on: barnyardgrass (Echinochloa crus-galli, ECHCG); test: as above; conditions: post-emerge, phytotoxicity rating 0-100 at 14 days after application
How it was run: as §4

[18] = tested on: green foxtail (Setaria viridis, SETVI); test: as above; conditions: post-emerge, phytotoxicity rating 0-100 at 14 days after application
How it was run: as §4

[19] = tested on: large crabgrass (Digitaria sanguinalis, DIGSA); test: as above; conditions: post-emerge, phytotoxicity rating 0-100 at 14 days after application
How it was run: as §4

[20] = tested on: sicklepod (Cassia obtusifolia, CASOB); test: as above; conditions: post-emerge, phytotoxicity rating 0-100 at 14 days after application
How it was run: as §4

[21] = tested on: ivyleaf morningglory (Ipomoea hederacea, IPOHE); test: as above; conditions: post-emerge, phytotoxicity rating 0-100 at 14 days after application
How it was run: as §4

[22] = tested on: upland rice (Oryza sp., var. Tebonnet, RICE); test: Pre-emerge test, crop safety; conditions: crop damage, pre-emerge, phytotoxicity rating 0-100 at 14 days after application
How it was run: as §1

[23] = tested on: field corn (Zea mays L., var. Dekalb 535, CORN); test: Pre-emerge test, crop safety; conditions: crop damage, pre-emerge, phytotoxicity rating 0-100 at 14 days after application
How it was run: as §1

COc1c(Cl)cc(F)c(-n2ncc(C(F)(F)F)cc2=O)c1NC(=O)c1ccc2ccccc2c1 [Compound 11-6, 2-(4-chloro-6-fluoro-3-methoxy-2-naphthoylamidophenyl)-5-trifluoromethylpyridazin-3-one]
Pre-emerge Herbicidal Activity AMARE ([1]; rate 63 g ai/ha): 100 | Pre-emerge Herbicidal Activity AMARE ([1]; rate 250 g ai/ha): 100 | Post-emerge Herbicidal Activity RICE ([2]; 63 g ai/ha): 20 | Post-emerge Herbicidal Activity RICE ([2]; 250 g ai/ha): 60 | Post-emerge Herbicidal Activity CORN ([3]; 63 g ai/ha): 0 | Post-emerge Herbicidal Activity CORN ([3]; 250 g ai/ha): 20 | Pre-emerge Herbicidal Activity ABUTH ([4]; rate 63 g ai/ha): 95 | Pre-emerge Herbicidal Activity ABUTH ([4]; rate 250 g ai/ha): 100 | Pre-emerge Herbicidal Activity SORHA ([5]; rate 63 g ai/ha): 0 | Pre-emerge Herbicidal Activity SORHA ([5]; rate 250 g ai/ha): 40 | Pre-emerge Herbicidal Activity CHEAL ([6]; rate 63 g ai/ha): 100 | Pre-emerge Herbicidal Activity CHEAL ([6]; rate 250 g ai/ha): 100 | Pre-emerge Herbicidal Activity ECHCG ([7]; rate 63 g ai/ha): 90 | Pre-emerge Herbicidal Activity ECHCG ([7]; rate 250 g ai/ha): 100 | Pre-emerge Herbicidal Activity SETVI ([8]; rate 63 g ai/ha): 100 | Pre-emerge Herbicidal Activity SETVI ([8]; rate 250 g ai/ha): 100 | Pre-emerge Herbicidal Activity DIGSA ([9]; rate 63 g ai/ha): 100 | Pre-emerge Herbicidal Activity DIGSA ([9]; rate 250 g ai/ha): 100 | Pre-emerge Herbicidal Activity CASOB ([10]; rate 63 g ai/ha): 20 | Pre-emerge Herbicidal Activity CASOB ([10]; rate 250 g ai/ha): 99 | Pre-emerge Herbicidal Activity IPOHE ([11]; rate 63 g ai/ha): 0 | Pre-emerge Herbicidal Activity IPOHE ([11]; rate 250 g ai/ha): 80 | Post-emerge Herbicidal Activity ABUTH ([12]; 63 g ai/ha): 100 | Post-emerge Herbicidal Activity ABUTH ([12]; 250 g ai/ha): 100 | Post-emerge Herbicidal Activity SORHA ([13]; 63 g ai/ha): 0 | Post-emerge Herbicidal Activity SORHA ([13]; 250 g ai/ha): 0 | Post-emerge Herbicidal Activity AMARE ([14]; 63 g ai/ha): 100 | Post-emerge Herbicidal Activity AMARE ([14]; 250 g ai/ha): 100 | Post-emerge Herbicidal Activity CHEAL ([15]; 63 g ai/ha): 80 | Post-emerge Herbicidal Activity CHEAL ([15]; 250 g ai/ha): 100 | Post-emerge Herbicidal Activity AMBEL ([16]; 63 g ai/ha): 100 | Post-emerge Herbicidal Activity AMBEL ([16]; 250 g ai/ha): 100 | Post-emerge Herbicidal Activity ECHCG ([17]; 63 g ai/ha): 50 | Post-emerge Herbicidal Activity ECHCG ([17]; 250 g ai/ha): 80 | Post-emerge Herbicidal Activity SETVI ([18]; 63 g ai/ha): 10 | Post-emerge Herbicidal Activity SETVI ([18]; 250 g ai/ha): 50 | Post-emerge Herbicidal Activity DIGSA ([19]; 63 g ai/ha): 0 | Post-emerge Herbicidal Activity DIGSA ([19]; 250 g ai/ha): 0 | Post-emerge Herbicidal Activity CASOB ([20]; 63 g ai/ha): 100 | Post-emerge Herbicidal Activity CASOB ([20]; 250 g ai/ha): 100 | Post-emerge Herbicidal Activity IPOHE ([21]; 63 g ai/ha): 70 | Post-emerge Herbicidal Activity IPOHE ([21]; 250 g ai/ha): 100 | Pre-emerge Herbicidal Activity RICE ([22]; rate 63 g ai/ha): 0 | Pre-emerge Herbicidal Activity RICE ([22]; rate 250 g ai/ha): 50 | Pre-emerge Herbicidal Activity CORN ([23]; rate 63 g ai/ha): 0 | Pre-emerge Herbicidal Activity CORN ([23]; rate 250 g ai/ha): 20
